“Also recorded” adds a separate entry of the source.
Tests used:
human subjects [1] = test: Initial human study, two male subjects ingesting aegeline for 12-18 weeks, reported effects; assay type: in vivo; conditions: for libido: male volunteers
human subjects [2] = test: Human study, six adult males ingesting 200-800 mg aegeline per day: effects reported by subjects; assay type: in vivo
From the text: In a separate study, the compound aegeline was orally administered to six human subjects. The volunteer subjects were all non-smoking males between the ages of 24-36.

COc1ccc(C(O)CNC(=O)/C=C/c2ccccc2)cc1 (stereo not shown) [aegeline, N-[2-hydroxy-2(4-methoxyphenyl)ethyl]-3-phenyl-2-propenamide] was tested, and the effect on thermogenesis (human subjects [1]; daily dose of 80 mg) was “without a very noticeable effect; also recorded: not very noticeable”, the “mental stamina, focus, and mood” value (human subjects [1]; daily dose of 80 mg) was “effective to increase or improve” and the “duration of effects on mental stamina, focus, and mood after effect onset” value (human subjects [1]; daily dose of 120 mg) was 8 to 10 h. For the same compound, the “mental stamina, focus, and mood” value (human subjects [1]; daily dose of 120 mg) was “further increased or improved”, the thermogenic effect (human subjects [1]; daily dose of 120 mg) was “noticeable but not very apparent; also recorded: noticeable” and the “mental stamina, focus, energy level, mood and thermogenesis” value (human subjects [1]; dose increase to 150-180 mg) was “further enhanced or increased”. The libido (human subjects [1]; daily dose of 150 mg) was “increased libido; also recorded: effective to increase libido”, the libido (human subjects [1]; daily doses lower than 150 mg) was “not at the lower daily doses” and the reported effects (human subjects [1]; two male subjects, 20-60 mg per day) was “no immediate apparent effects”. For the same compound, the “mental stamina, focus and concentration, energy level, and mood” value (human subjects [1]; two male subjects, 80-150 mg per day) was “increased or improved”, the anabolic effects (human subjects [2]; 200 mg per day) was “became apparent after extended use” and the thermogenic effect (human subjects [2]; 200 mg per day) was “very apparent”. For the same compound, the “time of daily administration until anabolic effects became apparent” value (human subjects [2]; 200 mg per day) was “around 7 days”, the libido (human subjects [2]; 400 mg per day) was “very apparent and prolonged increase” and the effect on libido (human subjects [2]; daily dose of 200 mg) was “further increased”. For the same compound, the “effects on mental stamina, energy level, focus, and mood” value (human subjects [2]; daily dose of 200 mg) was “very apparent”, the anabolic effects (human subjects [2]; daily dose of 400 mg) was “immediately apparent” and the “dose-dependency of effects on mental stamina, energy level, focus, and mood” value (human subjects [2]; doses above 400 mg per day) was “not readily observed”. For the same compound, the “physical performance for exercise and strength training activities” value (human subjects [2]; one subject, daily dose of 800 mg) was “improved physical performance”.
